Assays:
TcCYP51 = conditions: formerly reported; cited from earlier work
[1] = tested on: T. cruzi intracellular amastigotes in H9c2 cells; assay: Rate-of-Kill (RoK) high-content imaging assay, amastigotes per cell (AM/CELL) and curve descriptors; assay type: cell-based, Trypanosoma cruzi; design: key to ME_24h / ME_48h / ME_72h: % reduction in parasite burden (cidal response); t50pct_MCC50 / t50pct_Cmax: unit not given here; conditions: for ME_24h: 24h; for ME_48h: 48h; for ME_72h: 72h; for tlag_Cmax / t50pct_Cmax / t50%_Cmax: at Cmax; for ME_24h (%): maximum effect at 24 h; for ME_24h (%) / ME_48h (%) / ME_72h (%): RoK assay; for ME_48h (%): maximum effect at 48 h; for ME_72h (%): maximum effect at 72 h; for ME 24h (maximum effect at 24 hours, intracellular amastigotes): maximum percentage of parasite burden reduction reached by any concentration
Procedure: For this high-content intracellular imaging assay, H9c2 cells were seeded in 225 cm^2 T- FLASK in DMEM with 10% FBS for 4 h to allow attachment. T. cruzi trypomastigotes, collected at days 5 to 8 after infection from LLC-MK2 parasite infected cultures, were allowed to swim out for 4 h at 37°C from a centrifuged pellet (1,600 x g / 10 min). Trypomastigotes were then collected and counted in a CASY Cell Counter using the 60 μm capillary. Trypomastigotes, in supplemented DMEM, were added to H9c2 cultures in a multiplicity of infection (MOI) of 8 and incubated for 18 h. Cells were washed once with PBS before incubation of the infected H9c2 monolayer with trypsin (Life-Technologies) to detach cells from the flask. Cells were counted in a CASY Cell Counter, using the 150 μm capillary, and their density set at 5 x 10^4 cells/mL in supplemented DMEM. Infected H9c2 were dispensed into 384-well plates at 50 μL per well using a Multidrop Combi dispenser. Control wells used to determine a 100% parasitic growth (full 6th column of each plate) were left untreated, whereas not infected cells were added in the control wells used as 0% parasite growth (or 100% parasite growth inhibition; full 18th column of each plate). The four plates corresponding to each RoK assay were predispensed for the same mother plate. […] Cultures were then fixed and stained with 50 μL per well of a PBS solution containing 4% formaldehyde and 2 μM DRAQ5 DNA dye (BioStatus, UK). Then plates were read in a PerkinElmer Opera Phenix using a 20x objective, 3 fields per well. DRAQ5 signal was detected using 640 nm excitation laser and a 690/50 nm emission detection filter. Automated image analysis was performed with a script developed on Acapella High Content Imaging and Analysis Software (PerkinElmer). Two outputs were provided for each sample well: (1) number of host cells nuclei to determine drug-related cytotoxicity (aka H9c2) and (2) number of amastigotes per cell as infection level measurement (aka AM/CELL). Each output is plotted as a time course for each compound at every concentration. This assay was adapted from Alonso-Padilla et al. and Peña et al..
To identify and classify the different compounds, the number of amastigotes per cell (AM/CELL) raw data obtained in rate of kill assay are normalised using the average of C1 (infected cells) at time 4 hours as 0% effect and the average of C2 (non-infected cells) for each time as 100% effect, according to the following Eq 1: %CIDALRESPONSE=100*[Avg_C14h-RawData]/[Avg_C14h-Avg_C2] (1)
• ME (Maximum Effect) is the maximum percentage of parasite burden reduction reached by any compound concentration. Compounds that decrease the initial parasite load will show a positive value of ME, whereas compounds that allow the progression of infection will render a negative ME value. […] It is calculated for the MCC50 (t50%_MCC50) and for the maximum concentration (t50%_Cmax). […] The value of this parameter is not either interpolated or extrapolated, and it refers to the first experimental time-course point at which a 50% of effect is reached or exceeded. • tlag defines the time elapsed for one particular concentration to reduce parasite burden between two consecutive points at any moment of the time course. It is calculated for the MCC50 (tlag_MCC50) and for the maximum concentration (tlag_Cmax). The value of this parameter is not either interpolated or extrapolated, and it refers to the first experimental time-course point of a positive slope in the normalised plot (i.e. %Cidal_Response). • Cmin_Tox (Minimal CytoToxic Concentration) is the lowest compound concentration that is reducing the number of host mammalian cells below 50% of initial cell density. Cytotoxic compounds may mislead a bona fide antiparasitic action.

Row | SMILES | CYP51 pIC50 (TcCYP51) | ME_24h ([1]; figure 5) | ME_48h ([1]; figure 5) | ME_72h ([1]; figure 5) | MCCE ([1]; RoK curve descriptor) | tlag_Cmax [1] | t50pct_Cmax ([1]; figure 5) | tlag_Cmax ([1]; figure 5) | t50pct_MCC50 ([1]; at MCC50, figure 5) | tlag_MCC50 ([1]; at MCC50, figure 5) | MCC50 ([1]; figure 5) | MCCE ([1]; figure 5) | ME_24h (%) [1] | ME_48h (%) [1] | ME_72h (%) [1] | ME 24h (maximum effect at 24 hours, intracellular amastigotes) [1] | AM/CELL NORM ([1]; Time 4, sheet figure 4 A) | AM/CELL NORM ([1]; Time 24, sheet figure 4 A) | AM/CELL NORM ([1]; Time 48, sheet figure 4 A) | AM/CELL NORM ([1]; Time 72, sheet figure 4 A) | further results
1 | NC(=O)c1ccccc1Nc1nc(NC2CCCCC2)nc2[nH]ccc12 [TCMDC-143314] | < 4 | -235.508 | -846.189 | -1441.39 | 0.6 µM | 72.0 h | 72 | 72 | 72 | 72 | 50 µM | 0.6173 | -235.5% | -846.2% | -1441.4% | 91.926% | – | – | – | – | AM/CELL NORM ([1]; Time 4, figure 4 A): -0.353; AM/CELL NORM ([1]; Time 24, figure 4 A): -235.508; AM/CELL NORM ([1]; Time 48, figure 4 A): -898.709; AM/CELL NORM ([1]; Time 72, figure 4 A): -1946.1
2 | CCCCn1nnnc1CSc1nc(C)cc(C)c1C#N [TCMDC-143315] | 4.3 | 53.1743 | 83.3988 | 72.5932 | 0.2 µM | 4.0 h | 24 | 4 | 48 | 4 | – | 0.2058 | 53.2% | 83.4% | 72.6% | 53.1743% | 13.5421 | 53.1743 | 83.3988 | 54.3555 | MCC50 ([1]; RoK curve descriptor): 0.6 µM; t50%_Cmax [1]: 24.0 h; t50%_MCC50 ([1]; at MCC50): 48.0 h; tlag_MCC50 ([1]; at MCC50): 4.0 h; MCC50 ([1]; figure 5, in µM): 0.6173
3 | O=C(CSc1ccc(F)cc1)N[C@@H](Cc1cnc[nH]1)C(=O)NCCc1ccccc1.O=C(O)C(F)(F)F [TCMDC-143317] | 7.1 | -217.337 | -137.825 | 44.5659 | 1.2 µM | 24.0 h | 72 | 24 | 72 | 48 | 50 µM | 1.235 | -217.3% | -137.8% | 44.6% | -157.067% | -0.3431 | -195.022 | -169.506 | 59.3586 | MCC50 ([1]; RoK curve descriptor): 50.0 µM; t50%_Cmax [1]: 72.0 h; t50%_MCC50 ([1]; at MCC50): 72.0 h; tlag_MCC50 ([1]; at MCC50): 24.0 h
4 | CCOc1cnn(C)c(=O)c1Nc1ccc(C(=O)NCc2ccc(F)cc2)cc1 [TCMDC-143319] | 5.4 | -74.4049 | -82.6884 | 13.1125 | 0.2 µM | 24.0 h | 72 | 24 | 72 | 72 | 50 µM | 0.2058 | -74.4% | -82.7% | 13.1% | -74.4049% | -4.52 | -105.903 | -82.6884 | -13.3312 | –
5 | O=C(NC1C(=O)N(c2ccccc2)C1c1cccnc1)c1ccc(Cl)s1 (centres unmarked) [TCMDC-143324] | 6.7 | -26.8888 | -112.607 | -10.0757 | 0.07 µM | 72.0 h | 72 | 72 | 72 | 72 | 50 µM | 0.06859 | -26.9% | -112.6% | -10.1% | -26.8888% | -16.6269 | -26.8888 | -112.607 | -155.468 | –
6 | CCn1nccc1CN(C)C(=O)C=Cc1ccc(Cl)cc1 [TCMDC-143325] | 6.5 | -25.9716 | -135.889 | 23.6762 | 0.6 µM | 48.0 h | 72 | 48 | 72 | 72 | 50 µM | 0.6173 | -26.0% | -135.9% | 23.7% | -25.9716% | 13.1334 | -25.9716 | -135.889 | 23.6762 | –
7 | Cc1[nH]nc2c1C(c1ccc(OCc3ccccc3F)cc1)SCC(=O)N2 (centres unmarked) [TCMDC-143328] | < 4 | 2.825 | -7.539 | -52.7101 | 5.6 µM | 24.0 h | 72 | 24 | 72 | 72 | 50 µM | 5.556 | 2.8% | -7.5% | -52.7% | 2.825% | 25.0577 | -15.4729 | -7.539 | -52.7101 | –
8 | CCCN(Cc1ccc(OC)c(OC)c1)Cc1cc(=O)c2c(C)cc(C)cc2[nH]1 [TCMDC-143331] | 4.5 | 53.5839 | 70.4309 | 85.455 | 1.9 µM | 4.0 h | 24 | 4 | 48 | 4 | – | 1.852 | 53.6% | 70.4% | 85.5% | 54.2116% | 14.9494 | 52.9561 | 75.3164 | 72.8804 | ME (maximum effect) in RoK assay (in words) [1]: high values in ME at the different times; tlag (in words) [1]: short tlag; MCC50 ([1]; RoK curve descriptor): 27.8 µM; t50%_Cmax [1]: 24.0 h; t50%_MCC50 ([1]; at MCC50): 48.0 h; tlag_MCC50 ([1]; at MCC50): 4.0 h; MCC50 ([1]; figure 5, in µM): 27.7778
9 | CC(C)(C)C(Cn1ccnc1)NC(=O)c1ccc2nc(C3CC3)oc2c1 (centres unmarked) [TCMDC-143336] | 7 | -64.3403 | -179.917 | -53.9696 | 0.2 µM | 48.0 h | 72 | 48 | 72 | 72 | 50 µM | 0.2058 | -64.3% | -179.9% | -54.0% | -64.3403% | 3.062 | -93.0977 | -442.656 | -139.753 | –

Source: PMC8318231, “Rate-of-Kill (RoK) assays to triage large compound sets for Chagas disease drug discovery: Application to GSK Chagas Box” (PLoS Neglected Tropical Diseases, 2021)
